Results reported in ChEMBL document CHEMBL1132752, “Structure-activity relationships of trans-3,5-disubstituted pyrrolidinylthio-1beta-methylcarbapenems. Part 2: J-111,225, J-114,870, J-114,871 and related compounds” (2000).
Converted amounts (≈) assume the structure as drawn.

Tests used:
Assay type in all cases: functional
Sus scrofa = organism: Sus scrofa; assay: Porcine renal DHP-1 susceptibility.
Escherichia coli = assay: In vitro antimicrobial activity against Escherichia coli NIHJ JC2
Pseudomonas aeruginosa [1] = assay: In vitro antimicrobial activity against Pseudomonas aeruginosa AK 109
Pseudomonas aeruginosa [2] = assay: In vitro antimicrobial activity against ceftazidime resistant Pseudomonas aeruginosa AKR 17
Rattus norvegicus = assay: Epileptogenicity at 200 ug in rat intracerebroventricular assay.
[3] = test system: Staphylococcus epidermidis; assay: In vitro antimicrobial activity against methicillin resistant Staphylococcus epidermidis MB5181
Staphylococcus aureus [4] = assay: In vitro antimicrobial activity against Staphylococcus aureus 209P NIHJ JCI
Staphylococcus aureus [5] = assay: In vitro antimicrobial activity against methicillin resistant Staphylococcus aureus pMS520

Row | SMILES | Susceptibility (Sus scrofa) | MIC (Escherichia coli) | MIC (Pseudomonas aeruginosa [1]) | MIC (Pseudomonas aeruginosa [2]) | Epileptogenicity (Rattus norvegicus) | MIC [3] | MIC (Staphylococcus aureus [4]) | MIC (Staphylococcus aureus [5])
1 | C[C@@H](O)[C@H]1C(=O)N2C(C(=O)O)=C(S[C@@H]3CN[C@@H](c4ccc(CN)cc4)C3)[C@H](C)[C@H]12 | 0.29 | 0.025 µg/mL (≈ 0.0599 µM) | 0.39 µg/mL (≈ 0.934 µM) | 3.13 µg/mL (≈ 7.5 µM) | 5 | 1.56 µg/mL (≈ 3.74 µM) | < 0.006 µg/mL | 0.78 µg/mL (≈ 1.87 µM)
2 | CNCc1ccc([C@H]2C[C@H](SC3=C(C(=O)O)N4C(=O)[C@H]([C@@H](C)O)[C@H]4[C@H]3C)CN2)s1 | 0.35 | 0.025 µg/mL (≈ 0.0571 µM) | 1.56 µg/mL (≈ 3.57 µM) | 3.13 µg/mL (≈ 7.15 µM) | 3 | 3.13 µg/mL (≈ 7.15 µM) | < 0.006 µg/mL | 1.56 µg/mL (≈ 3.57 µM)
3 | C[C@@H](O)[C@H]1C(=O)N2C(C(=O)O)=C(S[C@@H]3CN[C@@H](c4ccc(CNCC(N)=O)cc4)C3)[C@H](C)[C@H]12 | 0.31 | 0.025 µg/mL (≈ 0.0527 µM) | 1.56 µg/mL (≈ 3.29 µM) | 6.25 µg/mL (≈ 13.2 µM) |  | 1.56 µg/mL (≈ 3.29 µM) | < 0.006 µg/mL | 3.13 µg/mL (≈ 6.6 µM)
4 | CCSCC(N)c1ccc([C@H]2C[C@H](SC3=C(C(=O)O)N4C(=O)[C@H]([C@@H](C)O)[C@H]4[C@H]3C)CN2)cc1 (stereo partly drawn) | 0.27 | 0.025 µg/mL (≈ 0.0508 µM) | 3.13 µg/mL (≈ 6.37 µM) | 12.5 µg/mL (≈ 25.4 µM) |  | 0.78 µg/mL (≈ 1.59 µM) | < 0.006 µg/mL | 1.56 µg/mL (≈ 3.17 µM)
5 | C[C@@H](O)[C@H]1C(=O)N2C(C(=O)O)=C(S[C@@H]3CN[C@@H](c4ccc(CNCCO)cc4)C3)[C@H](C)[C@H]12 | 0.31 | 0.05 µg/mL (≈ 0.108 µM) | 0.78 µg/mL (≈ 1.69 µM) | 6.25 µg/mL (≈ 13.5 µM) |  | 1.56 µg/mL (≈ 3.38 µM) | < 0.006 µg/mL | 1.56 µg/mL (≈ 3.38 µM)
6 | C[C@@H](O)[C@H]1C(=O)N2C(C(=O)O)=C(S[C@@H]3CN[C@@H](c4ccc(C(N)C(N)=O)cc4)C3)[C@H](C)[C@H]12 (stereo partly drawn) | 0.32 | 0.025 µg/mL (≈ 0.0543 µM) | 1.56 µg/mL (≈ 3.39 µM) | 6.25 µg/mL (≈ 13.6 µM) | 0 | 3.13 µg/mL (≈ 6.8 µM) | < 0.006 µg/mL | 3.13 µg/mL (≈ 6.8 µM)
7 | C[C@@H](O)[C@H]1C(=O)N2C(C(=O)O)=C(S[C@@H]3CN[C@@H](c4ccc([C@@H](N)CC(N)=O)cc4)C3)[C@H](C)[C@H]12 | 0.27 | 0.025 µg/mL (≈ 0.0527 µM) | 0.78 µg/mL (≈ 1.64 µM) | 1.56 µg/mL (≈ 3.29 µM) | 0 | 1.56 µg/mL (≈ 3.29 µM) | < 0.006 µg/mL | 1.56 µg/mL (≈ 3.29 µM)
8 | C[C@@H](O)[C@H]1C(=O)N2C(C(=O)O)=C(S[C@@H]3CN[C@@H](c4ccc(CCN)cc4)C3)[C@H](C)[C@H]12 | 0.26 | 0.025 µg/mL (≈ 0.0579 µM) | 0.78 µg/mL (≈ 1.81 µM) | 6.25 µg/mL (≈ 14.5 µM) | 3 | 3.13 µg/mL (≈ 7.25 µM) | < 0.006 µg/mL | 1.56 µg/mL (≈ 3.61 µM)
9 | C[C@@H](O)[C@H]1C(=O)N2C(C(=O)O)=C(S[C@@H]3CN[C@@H](c4ccc([C@H](N)CC(N)=O)cc4)C3)[C@H](C)[C@H]12 | 0.27 | 0.025 µg/mL (≈ 0.0527 µM) | 1.56 µg/mL (≈ 3.29 µM) | 1.56 µg/mL (≈ 3.29 µM) | 0 | 1.56 µg/mL (≈ 3.29 µM) | < 0.006 µg/mL | 1.56 µg/mL (≈ 3.29 µM)
10 | C/C(N)=N/Cc1ccc([C@H]2C[C@H](SC3=C(C(=O)O)N4C(=O)[C@H]([C@@H](C)O)[C@H]4[C@H]3C)CN2)cc1 | 0.25 | 0.05 µg/mL (≈ 0.109 µM) | 1.56 µg/mL (≈ 3.4 µM) | 6.25 µg/mL (≈ 13.6 µM) |  | 0.78 µg/mL (≈ 1.7 µM) | < 0.006 µg/mL | 1.56 µg/mL (≈ 3.4 µM)
11 | CC(N)c1ccc([C@H]2C[C@H](SC3=C(C(=O)O)N4C(=O)[C@H]([C@@H](C)O)[C@H]4[C@H]3C)CN2)cc1 (stereo partly drawn) | 0.55 | 0.025 µg/mL (≈ 0.0579 µM) | 0.78 µg/mL (≈ 1.81 µM) | 3.13 µg/mL (≈ 7.25 µM) | 0 | 0.78 µg/mL (≈ 1.81 µM) | < 0.006 µg/mL | 1.56 µg/mL (≈ 3.61 µM)
12 | C[C@@H](O)[C@H]1C(=O)N2C(C(=O)O)=C(S[C@@H]3CN[C@@H](c4cccc(CN)c4)C3)[C@H](C)[C@H]12 | 0.16 | 0.1 µg/mL (≈ 0.24 µM) | 0.78 µg/mL (≈ 1.87 µM) | 6.25 µg/mL (≈ 15 µM) | 5 | 3.13 µg/mL (≈ 7.5 µM) | < 0.006 µg/mL | 1.56 µg/mL (≈ 3.74 µM)
13 | C[C@@H](O)[C@H]1C(=O)N2C(C(=O)O)=C(S[C@@H]3CN[C@@H](c4ccc(CSC(=N)N)cc4)C3)[C@H](C)[C@H]12 | 0.3 | 0.05 µg/mL (≈ 0.105 µM) | 1.56 µg/mL (≈ 3.27 µM) | 12.5 µg/mL (≈ 26.2 µM) | 3 | 1.56 µg/mL (≈ 3.27 µM) | < 0.006 µg/mL | 1.56 µg/mL (≈ 3.27 µM)
14 | C[C@@H](O)[C@H]1C(=O)N2C(C(=O)O)=C(S[C@@H]3CN[C@@H](c4ccc(C(C)(C)N)cc4)C3)[C@H](C)[C@H]12 | 0.37 | 0.05 µg/mL (≈ 0.112 µM) | 1.56 µg/mL (≈ 3.5 µM) | 6.25 µg/mL (≈ 14 µM) | 0 | 1.56 µg/mL (≈ 3.5 µM) | < 0.006 µg/mL | 1.56 µg/mL (≈ 3.5 µM)
15 | C[C@@H](O)[C@H]1C(=O)N2C(C(=O)O)=C(S[C@@H]3CN[C@@H](c4ccc(CN=C(N)N)cc4)C3)[C@H](C)[C@H]12 |  | 0.012 µg/mL (≈ 0.0261 µM) | 0.78 µg/mL (≈ 1.7 µM) | 3.13 µg/mL (≈ 6.81 µM) |  | 0.78 µg/mL (≈ 1.7 µM) | < 0.006 µg/mL | 1.56 µg/mL (≈ 3.39 µM)
16 | C[C@@H](O)[C@H]1C(=O)N2C(C(=O)O)=C(S[C@@H]3CN[C@@H](c4ccc(C5(N)CC5)cc4)C3)[C@H](C)[C@H]12 | 0.32 | 0.025 µg/mL (≈ 0.0564 µM) | 3.13 µg/mL (≈ 7.06 µM) | 6.25 µg/mL (≈ 14.1 µM) | 0 | 1.56 µg/mL (≈ 3.52 µM) | < 0.006 µg/mL | 1.56 µg/mL (≈ 3.52 µM)
17 | C[C@@H](O)[C@H]1C(=O)N2C(C(=O)O)=C(S[C@@H]3CN[C@@H](c4ccc(C(N)CCO)cc4)C3)[C@H](C)[C@H]12 (stereo partly drawn) |  | 0.05 µg/mL (≈ 0.108 µM) | 1.56 µg/mL (≈ 3.38 µM) | 12.5 µg/mL (≈ 27.1 µM) | 0 | 6.25 µg/mL (≈ 13.5 µM) | < 0.006 µg/mL | 3.13 µg/mL (≈ 6.78 µM)
18 | CC(C)NCc1ccc([C@H]2C[C@H](SC3=C(C(=O)O)N4C(=O)[C@H]([C@@H](C)O)[C@H]4[C@H]3C)CN2)cc1 |  | 0.05 µg/mL (≈ 0.109 µM) | 0.78 µg/mL (≈ 1.7 µM) | 6.25 µg/mL (≈ 13.6 µM) |  | 1.56 µg/mL (≈ 3.39 µM) | < 0.006 µg/mL | 1.56 µg/mL (≈ 3.39 µM)
19 | CCC(N)c1ccc([C@H]2C[C@H](SC3=C(C(=O)O)N4C(=O)[C@H]([C@@H](C)O)[C@H]4[C@H]3C)CN2)cc1 (stereo partly drawn) | 0.2 | 0.1 µg/mL (≈ 0.224 µM) | 3.13 µg/mL (≈ 7.02 µM) | 25 µg/mL (≈ 56.1 µM) | 0 | 1.56 µg/mL (≈ 3.5 µM) | < 0.006 µg/mL | 1.56 µg/mL (≈ 3.5 µM)
20 | CCNCc1ccc([C@H]2C[C@H](SC3=C(C(=O)O)N4C(=O)[C@H]([C@@H](C)O)[C@H]4[C@H]3C)CN2)cc1 | 0.44 | 0.025 µg/mL (≈ 0.0561 µM) | 1.56 µg/mL (≈ 3.5 µM) | 6.25 µg/mL (≈ 14 µM) | 0 | 1.56 µg/mL (≈ 3.5 µM) | < 0.006 µg/mL | 1.56 µg/mL (≈ 3.5 µM)
21 | CN[C@H](CC(C)C)C(=O)N[C@H]1C(=O)N[C@@H](CC(N)=O)C(=O)N[C@H]2C(=O)N[C@H]3C(=O)N[C@H](C(=O)N[C@H](C(=O)O)c4cc(O)cc(O)c4-c4cc3ccc4O)[C@H](O)c3ccc(c(Cl)c3)Oc3cc2cc(c3O[C@@H]2O[C@H](CO)[C@@H](O)[C@H](O)[C@H]2O[C@H]2C[C@](C)(N)[C@H](O)[C@H](C)O2)Oc2ccc(cc2Cl)[C@H]1O [VANCOMYCIN] |  | > 100 µg/mL | > 100 µg/mL | > 100 µg/mL |  |  | 0.39 µg/mL (≈ 0.269 µM) | 0.78 µg/mL (≈ 0.538 µM)
22 | C[C@@H](O)[C@H]1C(=O)N2C(C(=O)O)=C(SCCNC=N)C[C@H]12.O | 1 | 0.1 µg/mL | 1.56 µg/mL | 3.13 µg/mL | 5 | 50 µg/mL | < 0.006 µg/mL | 50 µg/mL
23 | C[C@@H](O)[C@H]1C(=O)N2C(C(=O)O)=C(S[C@@H]3CN[C@@H](c4ccc(CN)s4)C3)[C@H](C)[C@H]12 | 0.84 | 0.025 µg/mL (≈ 0.059 µM) | 0.78 µg/mL (≈ 1.84 µM) | 3.13 µg/mL (≈ 7.39 µM) | 5 | 1.56 µg/mL (≈ 3.68 µM) | < 0.006 µg/mL | 1.56 µg/mL (≈ 3.68 µM)
24 | CNCc1ccc([C@H]2C[C@H](SC3=C(C(=O)O)N4C(=O)[C@H]([C@@H](C)O)[C@H]4[C@H]3C)CN2)cc1 | 0.25 | 0.025 µg/mL (≈ 0.0579 µM) | 0.39 µg/mL (≈ 0.904 µM) | 1.56 µg/mL (≈ 3.61 µM) | 0 | 1.56 µg/mL (≈ 3.61 µM) | < 0.006 µg/mL | 0.78 µg/mL (≈ 1.81 µM)
25 | CNCc1ccc([C@H]2C[C@H](SC3=C(C(=O)O)N4C(=O)[C@H]([C@@H](C)O)[C@H]4[C@H]3C)CN2)o1 | 0.1 | 0.025 µg/mL (≈ 0.0593 µM) | 1.56 µg/mL (≈ 3.7 µM) | 12.5 µg/mL (≈ 29.7 µM) |  | 1.56 µg/mL (≈ 3.7 µM) | < 0.006 µg/mL | 3.13 µg/mL (≈ 7.43 µM)
26 | C[C@@H](O)[C@H]1C(=O)N2C(C(=O)O)=C(S[C@@H]3CN[C@@H](c4ccc(CN)c5ccccc45)C3)[C@H](C)[C@H]12 | 0.16 | 0.05 µg/mL (≈ 0.107 µM) | 6.25 µg/mL (≈ 13.4 µM) | > 25 µg/mL | 5 | 0.78 µg/mL (≈ 1.67 µM) | < 0.006 µg/mL | 1.56 µg/mL (≈ 3.34 µM)
27 | C=CCC(N)c1ccc([C@H]2C[C@H](SC3=C(C(=O)O)N4C(=O)[C@H]([C@@H](C)O)[C@H]4[C@H]3C)CN2)cc1 (stereo partly drawn) | 0.29 | 0.025 µg/mL (≈ 0.0546 µM) | 1.56 µg/mL (≈ 3.41 µM) | 12.5 µg/mL (≈ 27.3 µM) | 0 | 3.13 µg/mL (≈ 6.84 µM) | < 0.006 µg/mL | 1.56 µg/mL (≈ 3.41 µM)
